Measurements reported in ChEMBL document CHEMBL1121497, “Studies on cardiovascular agents. 6. Synthesis and coronary vasodilating and antihypertensive activities of 1,2,4-triazolo[1,5-a]pyrimidines fused to heterocyclic systems” (1980).

Experiments:
Assay type in all cases: functional
Cavia porcellus [1] = species on record: Cavia porcellus; assay: Integrated vasodilating potency (IVP) (the product of compound-induced maximum percent decrease in the perfusion pressure and the duration of the effect in minutes at 100 ug (ia))
Rattus norvegicus = assay: Hypotensive index (HI) measured as the area under the time-hypotensive response curve for 6-h period at 30 mg/kg, po
Cavia porcellus [2] = species on record: Cavia porcellus; assay: Integrated vasodilating potency (the product of compound-induced maximum percent decrease in the perfusion pressure and the duration of the effect in minutes at 100 ug (ia); Coronary vasoconstricting action)

Compound	IVP (Cavia porcellus [1])	HI (Rattus norvegicus)	IVP (Cavia porcellus [2])
CCCCCCN1CCc2c(C)nc3ncnn3c21	14	10	–
Cc1nc2ncnn2c2c1CCCO2	0	–	–
Cc1nc2ncnn2c2c1CCCN2Cc1ccccc1F	–	0	Coronary vasoconstricting action
Cc1nc2ncnn2c2c1CCN2C(C)(C)CO	38	75	–
Cc1nc2nc(-c3ccccc3)nn2c2c1CCN2Cc1ccccc1F	–	8	Coronary vasoconstricting action
Cc1nc2ncnn2c2c1C(C)CN2C(C)(C)C (centres undefined)	333	20	–
Cc1cn(C(C)(C)C)c2c1c(C)nc1ncnn12	330	20	–
Cc1nc2ncnn2c2c1CCN2C(C)COc1ccccc1 (centres undefined)	63	65	–
Cc1nc2ncnn2c2c1CC(C)N2C(C)C (centres undefined)	10	0	–
CCCCCCCCCCCCN1CCc2c(C)nc3ncnn3c21	–	10	–
Cc1nc2ncnn2c2c1CCCN2Cc1ccccc1Cl	–	10	Coronary vasoconstricting action
Clc1ccccc1CN1CCc2c(C3CC3)nc3ncnn3c21	5	–	–
Cc1nc2ncnn2c2c1ccn2CC(C)C	38	15	–
Cc1nc2ncnn2c2c1CCN2CCOC(=O)c1cccnc1	7	30	–
CCC1Cc2c(C)nc3ncnn3c2N1C(C)C (centres undefined)	0	20	–
Cc1nc2ncnn2c2c1CCN2CCS	285	10	–
Cc1nc2ncnn2c2c1CCN2CCCOC(=O)c1cccnc1	24	30	–
COc1ccc(-c2nc3nc(C)c4c(n3n2)N(C)CC4)cc1	0	0	–
COc1cc(CN2CCc3c(C)nc4ncnn4c32)cc(OC)c1OC	109	15	–
Cc1nc2ncnn2c2c1CCN2CCCN(C)C	0	10	–
COc1ccc(-c2nc3nc(C)c4c(n3n2)N(CCCN2CCCC2)CC4)cc1	0	0	–
Cc1nc2ncnn2c2c1CCN2C1CCCCCC1	440	45	–
Cc1nc2ncnn2c2c1CCN2c1c(Cl)cccc1Cl	7	0	–
CCCCN(CCCC)CCCN1CCc2c(C)nc3ncnn3c21	0	40	–
CCN1CCc2c(C)nc3ncnn3c21	12	10	–
COc1ccc(-c2nc3nc(C)c4c(n3n2)N(C(C)C)CC4)cc1	–	0	Coronary vasoconstricting action

Compound	IVP (Cavia porcellus [1])	HI (Rattus norvegicus)	IVP (Cavia porcellus [2])
CCCN1CCN(CCCN2CCc3c(C)nc4ncnn4c32)CC1	3	0	–
Cc1nc2ncnn2c2c1CCS2	0	10	–
Cc1nc2ncnn2c2c1CCN2Cc1ccccc1Cl	86	30	–
Cc1nc2ncnn2c2c1CCN2c1ccc(S(N)(=O)=O)cc1	14	0	–
Cc1nc2nc(-c3ccc(Cl)cc3)nn2c2c1CCN2CCCN1CCCC1	–	0	Coronary vasoconstricting action
CCCCN1c2c(c(C)nc3ncnn23)CC1CC (centres undefined)	120	10	–
Cc1nc2ncnn2c2c1CCN2C(C)C	24	0	–
C=CCN1CCc2c(C)nc3ncnn3c21	56	70	–
Cc1nc2ncnn2c2c1ccn2C(C)(C)C	246	160	–
Cc1nc2ncnn2c2c1CCN2C(C)(C)CC(C)(C)C	32	–	–
CCCCN1CCc2c(C)nc3ncnn3c21	30	145	–
Cc1nc2nc(C)c3c(n2n1)N(CCCN1CCCC1)CC3	0	10	–
Cc1nc2ncnn2c2c1CCN2CCOCCO	22	10	–
Cc1nc2nc(-c3ccc(Cl)cc3)nn2c2c1CCN2C(C)C	–	0	Coronary vasoconstricting action
COc1ccc(CCN2CCc3c(C)nc4ncnn4c32)cc1OC	11	15	–
Cc1nc2ncnn2c2c1CCN2Cc1ccc(Cl)cc1	250	145	–
Cc1nc2ncnn2c2c1CCN2CC(O)CO (centres undefined)	–	15	Coronary vasoconstricting action
COc1ccc(CN2CCc3c(C)nc4ncnn4c32)cc1	55	13	–
Cc1nc2ncnn2c2c1CCN2CCCN1CCOCC1	3	40	–
Cc1nc2ncnn2c2c1CCN2C	50	10	–
Cc1nc2ncnn2c2c1CCN2Cc1ccccc1	46	170	–
CCCCN1c2c(c(C)nc3ncnn23)CC1C (centres undefined)	50	45	–
Cc1nc2ncnn2c2c1CCN2c1ccccc1	72	15	–
Cc1nc2ncnn2c2c1CCN2CCCN1CCCC1	0	75	–
COc1cc(C(=O)OCCN2CCc3c(C)nc4ncnn4c32)cc(OC)c1OC	21	0	–
COc1cc(-c2nc3nc(C)c4c(n3n2)N(C(C)(C)C)CC4)cc(OC)c1OC	222	50	–

Compound	IVP (Cavia porcellus [1])	HI (Rattus norvegicus)	IVP (Cavia porcellus [2])
Cc1nc2ncnn2c2c1CC(C)N2C(C)(C)C (centres undefined)	47	–	–
CCN(CC)CCN1CCc2c(C)nc3ncnn3c21	1	0	–
Cc1nc2ncnn2c2c1CCN2CC(C)C	107	60	–
Cc1nc2nc(-c3ccc(Cl)cc3)nn2c2c1CCN2C(C)(C)C	–	10	Coronary vasoconstricting action
COc1ccc(Cn2ccc3c(C)nc4ncnn4c32)cc1	55	0	–
CC(C)(C)N1CCc2c(C3CC3)nc3ncnn3c21	125	20	–
Cc1nc2ncnn2c2c1CCN2C(C)CC(C)C (centres undefined)	86	5	–
Cc1nc2ncnn2c2c1CCN2CCCN(CCO)CCO	0	45	–
COc1cc(C(=O)OCCCN2CCc3c(C)nc4ncnn4c32)cc(OC)c1OC	26	10	–
Cc1nc2ncnn2c2c1CCN2CCCN1CCCCC1	5	45	–
Cc1nc2nc(-c3ccccc3)nn2c2c1CCN2CCCN1CCCC1	105	44	–
Cc1ccc(CN2CCc3c(C)nc4ncnn4c32)cc1	119	15	–
Cc1nc2ncnn2c2c1CCN2CCc1ccccc1	100	5	–
c1ccc(CCN2CCc3c(C4CC4)nc4ncnn4c32)cc1	180	12	–
Cc1nc2ncnn2c2c1NCCN2C	0	5	–
COc1ccc(CN2CCc3c(C)nc4ncnn4c32)cc1OC	174	55	–
Cc1nc2ncnn2c2c1CCN2C1CCCCC1	65	12	–
CCCCCN1CCc2c(C)nc3ncnn3c21	15	6	–
Cc1nc2ncnn2c2c1CCN2CCN1CCCC1	2	0	–
Cc1nc2ncnn2c2c1CCN2CC(C)(C)C	760	40	–
Cc1nc2nc(C)c3c(n2n1)N(C(C)(C)C)CC3	18	35	–
Cc1nc2ncnn2c2c1CCN2CCN1CCOCC1	16	5	–
Cc1nc2ncnn2c2c1CCN2	6	55	–
CC(C)N1CCc2c(C3CC3)nc3ncnn3c21	45	5	–
COc1ccc(CN2c3c(c(C)nc4ncnn34)CC2C)cc1 (centres undefined)	82	11	–
Cc1nc2nc(C)c3c(n2n1)N(Cc1ccccc1Cl)CC3	15	18	–

Compound	IVP (Cavia porcellus [1])	HI (Rattus norvegicus)	IVP (Cavia porcellus [2])
Cc1nc2ncnn2c2c1CCN2CCN1CCCCC1	2	10	–
CCC1Cc2c(C)nc3ncnn3c2N1Cc1ccccc1F (centres undefined)	67	0	–
CNC1(C)C2CCC(C2)C1(C)C (centres undefined) [MECAMYLAMINE]	–	110	–
Cc1nc2ncnn2c2c1CC(C)N2Cc1ccccc1Cl (centres undefined)	80	8	–
Cc1nc2ncnn2c2c1CCN2CCO	12	0	–
Cc1nc2ncnn2c2c1CCN2C(C)c1ccccc1 (centres undefined)	137	5	–
Cc1nc2ncnn2c2c1CCN2C(C)C(O)c1ccccc1 (centres undefined)	8	0	–
Cc1nc2ncnn2c2c1N(C)CCN2C	45	25	–
CCCN1CCc2c(C)nc3ncnn3c21	193	15	–
CC(C)(C)CN1CCc2c(C3CC3)nc3ncnn3c21	50	20	–
Cc1nc2ncnn2c2c1CC[N+]2(C)C(C)(C)C.[I-] (centres undefined)	9	0	–
Cc1nc2ncnn2c2c1CCN2CCCO	12	105	–
CCC1Cc2c(C)nc3ncnn3c2N1C(C)(C)C (centres undefined)	227	12	–
CCCCCCCCCCN1CCc2c(C)nc3ncnn3c21	–	7	–
N=C(N)NCCN1CCCCCCC1.N=C(N)NCCN1CCCCCCC1.O=S(=O)(O)O [GUANETHIDINE SULFATE]	–	195	–
Cc1nc2ncnn2c2c1CCN2CCC(=O)c1ccccc1	32	17	–
Cc1nc2ncnn2c2c1CCN2CCC(C)C	118	5	–
Cc1nc2ncnn2c2c1CC(C)N2Cc1ccccc1F (centres undefined)	64	5	–
Cc1nc2ncnn2c2[nH]ccc12	45	60	–
Cc1nc2ncnn2c2c1CCN2CCN1CCN(C)CC1	20	10	–
CCC(C)N1CCc2c(C)nc3ncnn3c21 (centres undefined)	5	100	–
Cc1nc2ncnn2c2c1CCN2Cc1ccccc1F	351	5	–
Cc1nc2ncnn2c2c1ccn2Cc1ccccc1Cl	22	12	–
